# Data: article PMC9151520 (Archives of Toxicology, 2022)
# Values joined by “and” are separate entries in the source; they are usually repeats but may differ in a detail not shown here. Identical values can stand only once. Like-named read-outs stand apart in the source and are kept apart here.
# Columns and labels:
# [1] = tested on: p53 signaling (p53RE-bla HCT-116 cells); experiment: cells; format: cell-based; conditions: for EC50 / Emax: Homo sapiens
# [2] = tested on: p53 signaling (p53RE-bla HCT-116 cells)
# [3] = tested on: p53 signaling (p53RE-bla HCT-116 cells); remark: listed apart in the source
# p53RE-bla HCT-116 cells [4] = experiment: cells; conditions: Homo sapiens
# p53RE-bla HCT-116 cells [5] = tested on: p53RE-bla HCT-116 cells
# [6] = tested on: p53 signaling (p53RE-bla HCT-116 cells); experiment: cells; conditions: Homo sapiens
# [7] = tested on: p53 signaling (p53RE-bla HCT-116 cells); experiment: cells; format: cell-based; conditions: Homo sapiens, HCT-116
# [8] = rat
# [9] = tested on: p53 signaling (p53RE-bla HCT-116 cells); experiment: cells; format: cell-based; conditions: Homo sapiens, HCT-116, 0.5 h
# [10] = HCT-116, read-out: Viability EC50, cherry pick confirmation
# [11] = HCT-116, read-out: p53 activation EC50, primary screening
# [12] = HCT-116, read-out: p53 activation efficacy, primary screening
# [13] = HCT-116, read-out: p53 activation EC50, cherry pick confirmation
# [14] = HCT-116, read-out: p53 activation efficacy, cherry pick confirmation
# [15] = HCT-116, read-out: Viability EC50, primary screening
# [16] = HCT-116, read-out: p53 activation efficacy
SMILES,"p53 activation EC50, cherry pick confirmation [2]","p53 activation efficacy, cherry pick confirmation [2]","p53 activation EC50, cherry pick confirmation [3]","p53 activation EC50, primary screening [3]","p53 activation efficacy, cherry pick confirmation [3]","p53 activation efficacy, primary screening [3]",EC50 (p53RE-bla HCT-116 cells [4]; [10]) [µM],"Viability EC50, cherry pick confirmation (p53RE-bla HCT-116 cells [5])","Viability EC50, primary screening (p53RE-bla HCT-116 cells [5])","EC50 [6, 11] [µM]","Emax [6, 12] [%]","EC50 [1, 13] [µM]","EC50 [1, 11] [µM]","Emax [1, 14] [%]","Emax [1, 12] [%]",Depletion after 16 h of incubation with cells [8] [%],other results
COC(=O)C1=C(C)NC(COC(N)=O)=C(C(=O)OC(C)C)C1c1cccc(Cl)c1Cl (stereo not shown) [Lemildipine],inactive,inactive,inactive,inactive,inactive,inactive,19.9,inactive,inactive,20.7,59.7,–,–,–,–,–,"p53 activation EC50, cherry pick confirmation [1]: inactive; p53 activation EC50, primary screening [1]: inactive; p53 activation efficacy, cherry pick confirmation [1]: inactive; p53 activation efficacy, primary screening [1]: inactive; Viability efficacy, primary screening (p53RE-bla HCT-116 cells [5]): inactive"
CC1CCC(C(C)C)C(OC(=O)c2ccccc2N)C1 (stereo not shown) [Menthyl anthranilate],inactive,inactive,inactive,inactive,inactive,inactive,33.8,inactive,inactive,34.8,70.8,0.837,48.8,40.4,62.5,–,EC50 (p53RE-bla HCT-116 cells [4]; [15]): 36 µM
CCOc1ccc2c(c1)C(C)=CC(C)(C)N2 [Ethoxyquin],inactive,inactive,inactive,inactive,inactive,inactive,51.1,inactive,inactive,39.1,50.4,–,–,–,–,–,"p53 activation EC50, cherry pick confirmation [1]: inactive; p53 activation EC50, primary screening [1]: inactive; p53 activation efficacy, cherry pick confirmation [1]: inactive; p53 activation efficacy, primary screening [1]: inactive; EC50 (p53RE-bla HCT-116 cells [4]; [15]): 54.2 µM; EC50 (p53RE-bla HCT-116 cells [5]; read-out: Viability EC50, cherry pick confirmation): 48.2 µM"
Nc1nc(N)c2nc(CNc3ccc(C(=O)N[C@@H](CCC(=O)O)C(=O)O)cc3)cnc2n1 [Aminopterin],–,–,–,–,–,–,–,–,–,–,–,–,–,–,–,–,"p53 activation efficacy [1]: 45.6293; Emax [1, 16]: 39.2%; p53 activation efficacy [2]: 37.0427; p53 activation EC50 [3]: inactive; p53 activation efficacy [3]: inactive; EC50 (p53RE-bla HCT-116 cells [4]; HCT-116, read-out: Viability EC50): 0.191 µM; Viability EC50 (p53RE-bla HCT-116 cells [5]): inactive; Emax [6, 16]: 48.5%"
Cc1cccc2c1cc1ccc3cccc4ccc2c1c34 [7-Methylbenzo(a)pyrene],–,–,–,–,–,–,–,–,–,–,–,–,–,–,–,52.01 ± 27.41,"p53 activation Efficacy, No MS [1]: 64.7403%; Emax ([1]; HCT-116, read-out: p53 activation Efficacy, No MS): 59.2%; EC50 [7]: 27.5 µM; Viability EC50, HLM (p53RE-bla HCT-116 cells [5]): inactive; Viability EC50, No MS (p53RE-bla HCT-116 cells [5]): inactive; Viability EC50, RLM (p53RE-bla HCT-116 cells [5]): inactive; Viability Efficacy, HLM (p53RE-bla HCT-116 cells [5]): inactive; Viability Efficacy, No MS (p53RE-bla HCT-116 cells [5]): inactive; Viability Efficacy, RLM (p53RE-bla HCT-116 cells [5]): inactive; EC50 [9]: 32.9 µM; EC50 ([6]; HCT-116): 34.3 µM"
CCOP(=S)(OCC)Oc1cc(C)nc(N(CC)CC)n1 [Pirimiphos-ethyl],–,–,–,–,–,–,–,–,–,–,–,–,–,–,–,95.16 ± 0.46,"p53 activation EC50, No MS [1]: inactive; p53 activation Efficacy, No MS [1]: inactive; EC50 [2]: 2.07 µM; EC50 ([2]; read-out: p53 activation EC50, RLM): 1.91 µM and 3.44 µM; p53 activation EC50, HLM [3]: inactive; EC50 ([3]; read-out: p53 activation EC50, HLM): 3.88 µM; Viability EC50, HLM (p53RE-bla HCT-116 cells [5]): inactive; Viability EC50, No MS (p53RE-bla HCT-116 cells [5]): inactive; Viability EC50, RLM (p53RE-bla HCT-116 cells [5]): inactive; Viability Efficacy, HLM (p53RE-bla HCT-116 cells [5]): inactive; Viability Efficacy, No MS (p53RE-bla HCT-116 cells [5]): inactive; Viability Efficacy, RLM (p53RE-bla HCT-116 cells [5]): inactive"
CN(C)c1ccc2nc3ccc(=[N+](C)C)cc-3sc2c1 [Methylene blue],inactive,inactive,inactive,inactive,inactive,inactive,15.8,inactive,inactive,–,–,15.3,10.3,53.2,53.4,–,"p53 activation EC50, primary screening [2]: inactive; p53 activation efficacy, primary screening [2]: inactive; Viability efficacy, primary screening (p53RE-bla HCT-116 cells [5]): inactive"
Oc1c(Cl)cc(Cl)c(Cl)c1Cc1c(O)c(Cl)cc(Cl)c1Cl [Hexachlorophene],inactive,inactive,inactive,inactive,inactive,inactive,2.23,inactive,–,–,–,18,19.9,99.6,45.4,–,"p53 activation EC50, primary screening [2]: inactive; p53 activation efficacy, primary screening [2]: inactive"
CCOP(=S)(OCC)Oc1nc(Cl)n(C(C)C)n1 [Isazofos],–,–,–,–,–,–,–,–,–,–,–,–,–,–,–,97.88 ± 0.31,p53 activation EC50 [1]: inactive; p53 activation efficacy [1]: inactive; EC50 [2]: 8.27 µM; p53 activation efficacy [2]: 50.5712 and 50.6263; p53 activation EC50 [3]: inactive; EC50 ([3]; read-out: p53 activation EC50): 1.62 µM; Viability EC50 (p53RE-bla HCT-116 cells [5]): inactive; Viability efficacy (p53RE-bla HCT-116 cells [5]): inactive
